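Interpolation was linear, between the two tested concentrations surrounding the appropriate level; five concentrations were tested over 48 hours in 96-well plates. GI50 marks 50% less growth.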 The source made the active and inactive calls. Cut-off read from the data, not from the text of the source: active = GI50 up to about 1.1 µM and inactive = higher.
Experiments:
Assay in all cases: growth of human tumour cells (NCI), 48 h
SNB-19 = test system: SNB-19
Malme-3M = test system: Malme-3M
HT-29 = test system: HT-29
786-0 = test system: 786-0
CCRF-CEM = test system: CCRF-CEM
OVCAR-4 = test system: OVCAR-4
NCI-H522 = test system: NCI-H522
HCT-116 = test system: HCT-116
RXF 393 = test system: RXF 393
SF-539 = test system: SF-539
HCT-15 = test system: HCT-15
HOP-92 = test system: HOP-92
SF-295 = test system: SF-295
SK-MEL-2 = test system: SK-MEL-2
HOP-62 = test system: HOP-62
LOX IMVI = test system: LOX IMVI
SK-OV-3 = test system: SK-OV-3

SMILES	GI50 (SNB-19)	GI50 (Malme-3M)	GI50 (HT-29)	GI50 (786-0)	GI50 (CCRF-CEM)	GI50 (OVCAR-4)	GI50 (NCI-H522)	GI50 (HCT-116)	GI50 (RXF 393)	GI50 (SF-539)	GI50 (HCT-15)	GI50 (HOP-92)	GI50 (SF-295)	GI50 (SK-MEL-2)	GI50 (HOP-62)	GI50 (LOX IMVI)	GI50 (SK-OV-3)
O=C1CCC(=O)N1CNc1cccc(NCN2C(=O)CCC2=O)c1	> 100 µM (inactive)	> 100 µM (inactive)	> 100 µM (inactive)	> 100 µM (inactive)	29.6 µM (inactive)	> 100 µM (inactive)	> 100 µM (inactive)	64.3 µM (inactive)	> 100 µM (inactive)	> 100 µM (inactive)	61 µM	> 100 µM (inactive)	> 100 µM (inactive)	> 100 µM (inactive)	> 100 µM (inactive)	–	–
CC1CC2C(=O)N(c3ccccc3)C(=O)C2c2[nH]c3ccccc3c21 (stereo unspecified)	–	46.1 µM (inactive)	> 100 µM (inactive)	50.2 µM (inactive)	35.6 µM (inactive)	41.8 µM (inactive)	–	–	30.3 µM (inactive)	38.8 µM (inactive)	> 100 µM	–	44.8 µM (inactive)	–	–	45.5 µM (inactive)	14.2 µM (inactive)
COc1ccc2c(c1)[n+]([O-])c(C(=O)C/C(=N/NC(=O)C[N+](C)(C)C)C(=O)Nc1cccc(C)c1C)c(C)[n+]2[O-]	> 100 µM (inactive)	> 100 µM (inactive)	> 100 µM (inactive)	> 100 µM (inactive)	–	> 100 µM (inactive)	> 100 µM (inactive)	> 100 µM (inactive)	> 100 µM (inactive)	> 100 µM (inactive)	> 100 µM	59 µM (inactive)	> 100 µM (inactive)	> 100 µM (inactive)	> 100 µM (inactive)	–	> 100 µM (inactive)
C=CC[C@H]1C[C@@]2(C)OC[C@H](C(C)C)N2C1=O	> 100 µM (inactive)	> 100 µM (inactive)	> 100 µM (inactive)	> 100 µM (inactive)	> 100 µM (inactive)	> 100 µM (inactive)	–	> 100 µM (inactive)	> 100 µM (inactive)	> 100 µM (inactive)	> 100 µM	> 100 µM (inactive)	> 100 µM (inactive)	> 100 µM (inactive)	> 100 µM (inactive)	> 100 µM (inactive)	–
Cn1nc(-c2ccccc2)c(N=[N+]=[N-])cc1=O	> 100 µM (inactive)	> 100 µM (inactive)	> 100 µM (inactive)	> 100 µM (inactive)	> 100 µM (inactive)	> 100 µM (inactive)	> 100 µM (inactive)	> 100 µM (inactive)	> 100 µM (inactive)	> 100 µM (inactive)	> 100 µM	–	> 100 µM (inactive)	–	> 100 µM (inactive)	> 100 µM (inactive)	1.59 µM (inactive)
C=C(C)CCOC(c1ccccc1)(c1ccccc1)c1ccccc1	> 100 µM (inactive)	28.4 µM (inactive)	22.3 µM (inactive)	> 100 µM (inactive)	61.4 µM (inactive)	34.7 µM (inactive)	18.9 µM (inactive)	18.7 µM (inactive)	18.5 µM (inactive)	91 µM (inactive)	47.3 µM	33.6 µM (inactive)	37.4 µM (inactive)	–	70.5 µM (inactive)	25.2 µM (inactive)	> 100 µM (inactive)
Cc1ccc(S(=O)(=O)N2CCC3(C(/C=C/c4ccccc4)=Nc4ccccc43)C2c2ccccc2)cc1 (stereo unspecified)	> 100 µM (inactive)	> 100 µM (inactive)	> 100 µM (inactive)	> 100 µM (inactive)	> 100 µM (inactive)	> 100 µM (inactive)	> 100 µM (inactive)	> 100 µM (inactive)	> 100 µM (inactive)	> 100 µM (inactive)	> 100 µM	> 100 µM (inactive)	> 100 µM (inactive)	–	63.5 µM (inactive)	> 100 µM (inactive)	> 100 µM (inactive)
Cc1ccc(C)c(NC(=O)CC/C(=N\NC(=O)C(N)=O)C(C)C(=O)c2ccc(O)cc2)c1 (stereo unspecified)	> 100 µM (inactive)	> 100 µM (inactive)	> 100 µM (inactive)	> 100 µM (inactive)	> 100 µM (inactive)	> 100 µM (inactive)	–	> 100 µM (inactive)	61.1 µM (inactive)	> 100 µM (inactive)	> 100 µM	> 100 µM (inactive)	> 100 µM (inactive)	> 100 µM (inactive)	> 100 µM (inactive)	> 100 µM (inactive)	> 100 µM (inactive)
CC(=O)Nc1ccc(S(=O)(=O)NN(C)S(=O)(=O)c2ccc(C)cc2)cc1	> 100 µM (inactive)	> 100 µM (inactive)	> 100 µM (inactive)	> 100 µM (inactive)	> 100 µM (inactive)	> 100 µM (inactive)	> 100 µM (inactive)	> 100 µM (inactive)	> 100 µM (inactive)	> 100 µM (inactive)	–	> 100 µM (inactive)	> 100 µM (inactive)	> 100 µM (inactive)	> 100 µM (inactive)	–	> 100 µM (inactive)
O=C1NC2(C=Cc3c(ccc4ccccc34)O2)Oc2ccccc21 (stereo unspecified)	20.7 µM (inactive)	28.1 µM (inactive)	11.3 µM (inactive)	19 µM (inactive)	3.95 µM (inactive)	19.1 µM (inactive)	11.4 µM (inactive)	12.7 µM (inactive)	14.3 µM (inactive)	15.5 µM (inactive)	7.46 µM	–	13 µM (inactive)	13.2 µM (inactive)	31.7 µM (inactive)	12.9 µM (inactive)	–
CN(C)c1ccc(/C=C2\Cc3ccccc3C2=O)cc1Br	> 100 µM (inactive)	31.8 µM (inactive)	34.8 µM (inactive)	54.1 µM (inactive)	34.1 µM (inactive)	41.8 µM (inactive)	23.4 µM (inactive)	–	–	–	35.7 µM	–	> 100 µM (inactive)	40.6 µM (inactive)	> 100 µM (inactive)	–	> 100 µM (inactive)
CCc1ccccc1NC(=O)C(=O)C(C(=O)c1ccc(OC)cc1)c1ccc(OC)cc1 (stereo unspecified)	> 100 µM (inactive)	> 100 µM (inactive)	> 100 µM (inactive)	> 100 µM (inactive)	> 100 µM (inactive)	> 100 µM (inactive)	> 100 µM (inactive)	> 100 µM (inactive)	–	> 100 µM (inactive)	> 100 µM	–	> 100 µM (inactive)	> 100 µM (inactive)	> 100 µM (inactive)	> 100 µM (inactive)	> 100 µM (inactive)
COC(=O)OCC1OC(N2C(=O)NC(=O)C(Br)C2N=[N+]=[N-])CC1OC(=O)OC (stereo unspecified)	> 100 µM (inactive)	> 100 µM (inactive)	> 100 µM (inactive)	> 100 µM (inactive)	> 100 µM (inactive)	> 100 µM (inactive)	66.4 µM (inactive)	> 100 µM (inactive)	> 100 µM (inactive)	> 100 µM (inactive)	> 100 µM	> 100 µM (inactive)	> 100 µM (inactive)	–	> 100 µM (inactive)	> 100 µM (inactive)	> 100 µM (inactive)
O=C1c2ccccc2C(=O)N1C/C=N/NS(=O)(=O)c1ccc(F)cc1	> 100 µM (inactive)	> 100 µM (inactive)	–	> 100 µM (inactive)	> 100 µM (inactive)	> 100 µM (inactive)	> 100 µM (inactive)	> 100 µM (inactive)	–	> 100 µM (inactive)	> 100 µM	–	> 100 µM (inactive)	> 100 µM (inactive)	–	> 100 µM (inactive)	–
CCCCCCCCCCCCCCCCCC[N+](C)(C)Cc1ccc(C[N+](C)(C)CCCCCCCCCCCCCCCCCC)cc1	14.1 µM (inactive)	24.3 µM (inactive)	18.7 µM (inactive)	12.7 µM (inactive)	16.9 µM (inactive)	9.53 µM (inactive)	2.97 µM (inactive)	14.2 µM (inactive)	2.71 µM (inactive)	–	28 µM	5.26 µM (inactive)	11.3 µM (inactive)	24.1 µM (inactive)	4.41 µM (inactive)	13.6 µM (inactive)	26.6 µM (inactive)
CN(OC(=O)CC(=O)c1ccccc1)C(=O)Cc1ccccc1	> 100 µM (inactive)	> 100 µM (inactive)	> 100 µM (inactive)	> 100 µM (inactive)	> 100 µM (inactive)	> 100 µM (inactive)	> 100 µM (inactive)	> 100 µM (inactive)	–	> 100 µM (inactive)	> 100 µM	–	> 100 µM (inactive)	> 100 µM (inactive)	> 100 µM (inactive)	> 100 µM (inactive)	> 100 µM (inactive)
Cn1c(=O)c2c(ncn2CCCCn2ccnc2[N+](=O)[O-])n(C)c1=O	> 100 µM (inactive)	> 100 µM (inactive)	> 100 µM (inactive)	> 100 µM (inactive)	> 100 µM (inactive)	> 100 µM (inactive)	> 100 µM (inactive)	> 100 µM (inactive)	> 100 µM (inactive)	> 100 µM (inactive)	> 100 µM	–	> 100 µM (inactive)	> 100 µM (inactive)	> 100 µM (inactive)	> 100 µM (inactive)	–
CC(=O)OC[C@]1(O)CC[C@@]23CC1C[C@@H]2CCC1C(C)(C)CCC[C@@]13C (stereo partly specified)	14.5 µM (inactive)	15.6 µM (inactive)	13 µM (inactive)	17.3 µM (inactive)	10.1 µM (inactive)	15.9 µM (inactive)	2.64 µM (inactive)	11.9 µM (inactive)	7.11 µM (inactive)	16.4 µM (inactive)	15.8 µM	14.4 µM (inactive)	17.6 µM (inactive)	–	17.4 µM (inactive)	11.1 µM (inactive)	15.2 µM (inactive)
